SMILES strings stand for the structures. In brackets after ≈: the same amount, converted by molar mass. Several values for one entry are separate records, joined by “and”; a condition that tells them apart may be missing. Equal values may be shown once.

Common to all, as to type: cell-based, Pseudomonas aeruginosa PAO1
Assay [1] concerns P. aeruginosa planktonic phase. The assay can be described thus: Minimum inhibitory concentration (MIC80) in planktonic phase, broth microdilution, optical density 595 nm. As to conditions: 24 h, 80% growth inhibition. As to the method:
Pseudomonas aeruginosa (P. aeruginosa) PAO1 was used throughout the study. Blood agar and Brain heart infusion (BHI) solution were used for culturing P. aeruginosa. Prior to each experiment, P. aeruginosa was cultured on blood agar for 18 h at 37° C. A loopful of the overnight bacterial growth was inoculated into BHI medium, and incubated for 18 h in an orbital shaker (80 rpm) at 37° C. The resultant growth was harvested, washed twice in Phosphate Buffered Saline (PBS, pH 7.4) and resuspended. The concentration of P. aeruginosa was adjusted to 1×10^7 cells/mL by spectrophotometry and confirmed by hemocytometric counting. Briefly, bacterial cell suspension (5×10^5 cells/mL) were treated with the antibiotic in a concentration gradient and incubated in a 96 well microtiter plate for 24 h at 35° C. At the end of the incubation, the optical density of the bacterial growth was measured by a spectrophotometer at 595 nm. The lowest concentration of the antibiotic at which 80% of bacterial growth inhibition was achieved was considered as the MIC80 of this antibiotic against P. aeruginosa. The assay was performed quadruplicates at three times.
A general note: In broth dilution the organism is exposed to a series of concentrations in liquid medium.

The test system of assay [2] is P. aeruginosa biofilm formation phase. The assay can be described thus: MIC80 in biofilm formation phase, XTT reduction assay. As to conditions: Pseudomonas aeruginosa, 24 h, read-out: critical concentration necessary for 80% suppression of P. aeruginosa viability (MIC80). How it is done:
(§1) Pseudomonas aeruginosa (P. aeruginosa) PAO1 was used throughout the study. Blood agar and Brain heart infusion (BHI) solution were used for culturing P. aeruginosa.
(§2) Prior to each experiment, P. aeruginosa was cultured on blood agar for 18 h at 37° C. A loopful of the overnight bacterial growth was inoculated into BHI medium, and incubated for 18 h in an orbital shaker (80 rpm) at 37° C. The resultant growth was harvested, washed twice in Phosphate Buffered Saline (PBS, pH 7.4) and resuspended. The concentration of P. aeruginosa was adjusted to 1×10^7 cells/mL by spectrophotometry and confirmed by hemocytometric counting.
(§3) P. aeruginosa biofilm was developed as described (Bandara et al., 2010) with minor modifications. Commercially available pre-sterilized, polystyrene, flat bottom 96-well microtiter plates (BD Biosciences, California, USA) were used. […]
Bacterial cell suspension was added in sterile 96 well plates and incubated for 90 min under similar conditions as described in the section of Biofilm Formation. […] After 24 h incubation under 37° C. and 80 rpm, reduction assay of 2,3-bis(2-methoxy-4-nitro-5-sulfo-phenyl)-2H-tetrazolium-5-carboxanilide (XTT) was performed to quantify the viability of biofilm and crystal violet assay was used to measure biofilm biomass.
A general note: Tetrazolium assays rely on reduction of a dye to a coloured formazan, in cell work by metabolically active cells.

Assay [3] deals with P. aeruginosa pre-formed biofilm. The assay can be described thus: MIC80 in pre-formed biofilm phase, XTT reduction assay. As to conditions: pre-formed biofilm (24 h), 24 h treatment. How it is done: as §1, §2, §3
P. aeruginosa pre-formed biofilm was developed after 24 h incubation of adherent cells in sterile 96 well plates, as described in the section of Biofilm Formation. […] At the end of incubation period, XTT reduction assay was performed to quantify the viability of biofilm and crystal violet assay was used to measure biofilm biomass.

Assay [4] deals with P. aeruginosa biofilm formation phase. The assay can be described thus: Crystal violet assay of biofilm biomass, biofilm formation phase. As to the method: Bacterial cell suspension was added in sterile 96 well plates and incubated for 90 min under similar conditions as described in the section of Biofilm Formation. After the initial adhesion phase, adherent cells were treated with different samples in a concentration gradient, including control (PBS), tobramycin, and Tob-PEG. After 24 h incubation under 37° C. and 80 rpm, reduction assay of 2,3-bis(2-methoxy-4-nitro-5-sulfo-phenyl)-2H-tetrazolium-5-carboxanilide (XTT) was performed to quantify the viability of biofilm and crystal violet assay was used to measure biofilm biomass. At the end of incubation of both test and control biofilm, crystal violet assay was performed to quantify biofilm biomass. Biofilm was carefully washed twice with PBS and stained with 1% crystal violet solution for 15 min at 25° C. without shaking. Wells were carefully washed three times with PBS to remove excess stain and air dried in room temperature. Thirty percent acetic acid was added to the wells containing stained biofilm and incubated for 20 min at 25° C. The solution was transferred to a new well plate and optical density was measured at 570 nm.

Assay [5] has as its system P. aeruginosa pre-formed biofilm. The assay can be described thus: Elimination of pre-formed biofilm in time dependent test (XTT). As to conditions: each at its biofilm MIC80 (Tob-PEG 27.81, tobramycin 89.80 μmol/L), 1-36 h. As to the method: P. aeruginosa pre-formed biofilm was developed as described previously and was treated with different samples at respective biofilm MIC80 concentrations. The plates were then incubated for 24 h at 37° C. and 80 rpm. XTT reduction assay was performed to selected samples at predetermined time points (1 h, 2 h, 3 h, 4 h, 5 h, 6 h, 9 h, 12 h, 15 h, 18 h, 21 h, 24 h and 36 h after incubation) to assess the percentage of time dependent bacterial inhibition.

Regarding `NC[C@H]1O[C@H](O[C@H]2[C@H](O)[C@@H](O[C@H]3O[C@H](CO)[C@@H](O)[C@H](N)[C@H]3O)[C@H](N)C[C@@H]2N)[C@H](N)C[C@@H]1O` [tobramycin, Tobramycin], the “Minimum inhibitory concentration (MIC80)” value in assay [1] was 1.4 µM (≈ 0.655 µg/mL). In addition, the MIC80 in assay [1] (Pseudomonas aeruginosa) and in assay [2] was 1.4 µM (≈ 0.655 µg/mL) each time. Besides, the “critical concentration needed for 80% inhibition of viable P. aeruginosa pre-formed biofilm (MIC80)” value in assay [3] was 89.80 µM and 89.8 µM. Also, the “increment of the biofilm biomass compared to control” value in assay [4] (1.40 μmol/L, 24 h) was determined as 17%. The “biomass change versus untreated control” value in assay [4] (signed change) is “+17%”. Further, the “time dependent biofilm inhibition” value in assay [5] is “After 18 h, tobramycin was superior”.

For the origin of these results see patent US10272158B2, “Compounds for treating biofilm infection” (Board of Regents, The University of Texas System, priority 2014, dated 2019).
